This is an account of results in the supplement of paper PMC11061612.

Assay [1] has as its system C2BBe1 (Colorectal Carcinoma). Put plainly: Bliss excess, mean over the matrix (fraction); higher = more synergy. The procedure, abridged: (§1)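 Cell lines grown in DMEM/F12 or RPMI with 10% FBS were plated in 1536-well plates and held 24 hours at 37°C, 5% CO2 before 72 hours of exposure to two-drug dose matrices, with DMSO typically at 0.2%. CellTiter-Glo 2.0 luminescence gave viability, which was converted to inhibition. Vehicle wells were set to 0 and blank wells to 1. Combination Emax is the second-highest inhibition in the matrix, and Bliss excess is the observed combination effect minus the expected EA + EB − EA·EB, where EA and EB are the single-agent effects.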

Assay [2] relates to TOV-21G (Ovarian Carcinoma). The assay is described as above. The procedure, abridged: as §1
The test system of assay [3] is NCI-H1648 (Lung Adenocarcinoma). The assay is described as above. A digest of the protocol: as §1
Assay [4] concerns SNU-1 (Gastric Carcinoma). The description is as above. A digest of the protocol:
as §1

Assay [5] deals with TK (B-Cell Non-Hodgkin's Lymphoma). The assay is described as above. The procedure, abridged:
as §1

Assay [6] concerns SK-N-DZ (Neuroblastoma). Described as above. The procedure, abridged: as §1
Assay [7] has as its system SCC90 (Head and Neck Carcinoma). The assay is described as above. A digest of the protocol: as §1
In assay [8] the test system is JURL-MK1 (Chronic Myelogenous Leukemia). Described as above. A digest of the protocol:
as §1

Assay [9] relates to HT-1197 (Bladder Carcinoma). The description is as above. A digest of the protocol:
as §1

Assay [10] concerns ATN-1 (T-Lymphoblastic Leukemia). The assay is described as above. The procedure, abridged:
as §1

Assay [11] deals with DK-MG (Glioblastoma). The assay is described as above. A digest of the protocol:
as §1

The test system of assay [12] is TOV-21G (Ovarian Carcinoma). Put plainly: combination Emax (second highest fraction inhibited in the dose matrix, 72 h); higher = more inhibition; extreme values may be limits of the assay. The procedure, abridged:
as §1

For assay [13], the system named is TK (B-Cell Non-Hodgkin's Lymphoma). The assay is described as above. The procedure, abridged: as §1
Assay [14] deals with Daudi (Burkitt's Lymphoma). The description is as above. The procedure, abridged: as §1
Assay [15] concerns HT-144 (Melanoma). The assay is described as above. The procedure, abridged:
as §1

For assay [16], the system named is HT-1197 (Bladder Carcinoma). The description is as above. A digest of the protocol: as §1
In assay [17] the test system is RS4-11 (B-Lymphoblastic Leukemia). Described as above. A digest of the protocol: as §1
Assay [18] relates to SUP-HD1 (Hodgkin's Lymphoma). The assay is described as above. A digest of the protocol: as §1
The subject of assay [19] is NTERA-2-cl-D1 (Other Solid Carcinomas). The description is as above. The procedure, abridged: as §1
Assay [20] concerns NCI-H835 (Other Solid Carcinomas). Put plainly: Bliss excess, mean over the matrix (fraction); higher = more synergy. A digest of the protocol:
as §1
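Throughout, for Bliss excess, mean over the matrix: after 72 h of two-drug dosing.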

Turning to `CN(CCO)CC[C@H](CSc1ccccc1)Nc1ccc(S(=O)(=O)NC(=O)c2ccc(N3CCC([C@@H](O)c4ccccc4-c4ccc(Cl)cc4)CC3)cc2)cc1S(=O)(=O)C(F)(F)F` [AZD4320] + Cc1cc2ncnn2cc1Nc1ncc2c(n1)n(C1CCOCC1)c(=O)n2C [AZD7648] (first compound max 1 µM, 7x7, partner max 10 µM), the Bliss excess in assay [1] is -0.0403; in assay [2] it was -0.0221; in assay [3] it was -0.0264; in assay [4], 0.0237; in assay [5] it was -0.0018; in assay [6], -0.0362. The Bliss excess is 0.0682 in assay [7]; -0.0287 in assay [8]; -0.0497 in assay [9]; 0.0479 in [10]; -0.0591 in [11]. For the same molecule, the “combination Emax” value turned out to be 0.209 in [12]; 0.991 in [13]; 0.22 in [14]; 0.193 in [15]; 0.261 in assay [16]; 1 in [17]. The figures for the “combination Emax” value in [18] and in assay [19] were 0.939 and 0.682, respectively.
Turning to `CN(CCO)CC[C@H](CSc1ccccc1)Nc1ccc(S(=O)(=O)NC(=O)c2ccc(N3CCC([C@@H](O)c4ccccc4-c4ccc(Cl)cc4)CC3)cc2)cc1S(=O)(=O)C(F)(F)F` [AZD4320] + Nc1ccn([C@@H]2O[C@H](CO)[C@@H](O)C2(F)F)c(=O)n1 [Gemcitabine] (first compound max 1 µM, 7x7, partner max 0.3 µM), the Bliss excess in assay [3] is -0.0274; in assay [20] it was 0.0682. In [19], the “combination Emax” value was 0.663.
In the case of `Cc1cc2ncnn2cc1Nc1ncc2c(n1)n(C1CCOCC1)c(=O)n2C` [AZD7648] + COc1cc([C@@H]2c3cc4c(cc3[C@@H](O[C@@H]3O[C@@H]5CO[C@@H](C)O[C@H]5[C@H](O)[C@H]3O)[C@H]3COC(=O)[C@H]23)OCO4)cc(OC)c1O [Etoposide] (first compound max 10 µM, 7x7, partner max 10 µM), the Bliss excess in assay [3] is -0.0577; in assay [20] it was 0.024. In addition, the “combination Emax” value in assay [19] amounted to 0.575.
For the molecule `Cc1cc2ncnn2cc1Nc1ncc2c(n1)n(C1CCOCC1)c(=O)n2C` [AZD7648] + O=C(c1cc(Cc2n[nH]c(=O)c3ccccc23)ccc1F)N1CCN(C(=O)C2CC2)CC1 [Olaparib] (first compound max 10 µM, 7x7, partner max 10 µM), the Bliss excess in assay [1] is -0.0402; in assay [2], -0.0363; in assay [3], -0.0549; in assay [4], 0.0384; in assay [5], 0.0001; in [6], 0.0102. Besides, the Bliss excess in assay [7] is -0.0364; in assay [8], -0.0253; in assay [9] it was 0.0045; in assay [10] it was -0.031; in assay [11], -0.0126. Moreover, the “combination Emax” value in [12] amounted to 0.16; in assay [13], 0.26; in assay [14], 0.446; in assay [15], 0.232; in assay [16], 0.216; in assay [17] it was 0.484. Also, the “combination Emax” value is 0.465 in assay [18] and 0.534 in assay [19].
Turning to `N#Cc1cnc(Nc2cc(NC[C@H]3CNCCO3)c(C(F)(F)F)cn2)cn1` [SRA737] + C=CCn1c(=O)c2cnc(Nc3ccc(N4CCN(C)CC4)cc3)nc2n1-c1cccc(C(C)(C)O)n1 [AZD1775] (first compound max 10 µM, partner max 1 µM), the values for the Bliss excess in assay [3] and in assay [20] were -0.0116 and 0.01, respectively. In addition, the “combination Emax” value in assay [19] came out at 0.483.
As for `N#Cc1cnc(Nc2cc(NC[C@H]3CNCCO3)c(C(F)(F)F)cn2)cn1` [SRA737] + CCc1c2c(nc3ccc(O)cc13)-c1cc3c(c(=O)n1C2)COC(=O)[C@]3(O)CC [SN-38] (first compound max 10 µM, 7x7, partner max 0.3 µM), the Bliss excess in assay [20] was -0.0262. Further, the “combination Emax” value in assay [19] was determined as 0.624.
As for `N#Cc1cnc(Nc2cc(NC[C@H]3CNCCO3)c(C(F)(F)F)cn2)cn1` [SRA737] + Nc1ccn([C@@H]2O[C@H](CO)[C@@H](O)C2(F)F)c(=O)n1 [Gemcitabine] (first compound max 10 µM, 7x7, partner max 0.3 µM), the Bliss excess in assay [3] was 0.0912; in [20], -0.0363. Besides, the “combination Emax” value in assay [19] was 0.54.
Consider `N#Cc1cnc(Nc2cc(NC[C@H]3CNCCO3)c(C(F)(F)F)cn2)cn1` [SRA737] + O=c1[nH]cc(F)c(=O)[nH]1 [5-Fluorouracil] (first compound max 10 µM, 7x7, partner max 20 µM), for which the Bliss excess in assay [3] was -0.0515; in assay [20], 0.0621. For the same molecule, the “combination Emax” value in assay [19] was found to be 0.464.
On to `C[C@@H](c1ccc2nccn2c1)n1nnc2ncc(-c3cnn(C)c3)nc21` [Savolitinib] + CN(CC[C@H](CSC1=CC=CC=C1)NC2=C(C=C(C=C2)S(=O)(=O)NC(=O)C3=CC=C(C=C3)N4CCC(CC4)[C@H](C5=CC=CC=C5C6=CC=C(C=C6)Cl)O)S(=O)(=O)C(F)(F)F)CCO [AZD4320] (first compound max 1 µM, 7x7, partner max 1 µM), for which the Bliss excess in assay [1] was -0.0348; in assay [2], -0.0216; in assay [4], -0.0597; in [5], -0.08; in assay [6], -0.0035; in [7], 0.0447. Moreover, the Bliss excess in [8] is -0.0811; in assay [9], -0.0354; in [10], 0.0235; in [11], -0.0585. Besides, the “combination Emax” value amounted to 0.227 in [12]; 0.987 in assay [13]; 0.188 in assay [14]; 0.189 in assay [15]; 0.255 in assay [16]; 1 in [17]. Besides, the “combination Emax” value in assay [18] was determined as 0.941.
